The results in this text go back to ChEMBL document CHEMBL1201862, “PubChem BioAssay data set” (2004).

Test in all cases: NCI tumour cell line growth inhibition, 48 h
In experiment [1] the test system is M19-MEL.
Experiment [2] has as its system KM-20L2.
For experiment [3], the system named is XF498.
For experiment [4], the system named is DMS-114.
Experiment [5] relates to SNB-78.
Experiment [6] deals with HOP-18.
For experiment [7], the system named is DLD-1.
The test system of experiment [8] is DMS-273.
The subject of experiment [9] is RXF 631.

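Method: 48-hour compound exposure of cells in 96-well plates, five concentrations, linear interpolation of endpoints. GI50 marks 50% less growth.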 Calls of active or inactive are those of the source. Rule as the data show it: active = GI50 up to about 1.1 µM and inactive = higher. Some results are limits rather than exact numbers.

On to `O=c1c(-c2cccc3ccccc23)c(-c2cccc3ccccc23)c1=O`, for which the GI50 is 3.07 µM (inactive) in [1]; 0.379 µM (active) in experiment [2]; 2.27 µM (inactive) in experiment [3]; 2.1 µM (inactive) in experiment [4]; 1.95 µM (inactive) in experiment [5]; 39.8 µM (inactive) in [6]. For the same compound, the GI50 is 3.28 µM (inactive) in experiment [7] and 1.71 µM (inactive) in [8].

`C/C(=N/N)c1ccc2[nH]c3c(C)cc([N+](=O)[O-])c(C)c3c2c1`: the GI50 in [1] is 11.3 µM (inactive); in experiment [3], 11.4 µM (inactive); in experiment [4] it was 9.89 µM (inactive); in [6], 10.7 µM (inactive); in experiment [7], 3.18 µM (inactive); in experiment [8], 4.52 µM (inactive).

As for `O/N=C1/C(=C/c2ccc(Cl)c(Cl)c2)CCCC1C(NO)c1ccc(Cl)c(Cl)c1` (stereo not drawn), the GI50 in [1] is 18.2 µM (inactive); in experiment [2], 17.9 µM (inactive); in [3], 16.3 µM (inactive); in [4], 17.9 µM (inactive); in experiment [5] it was 18.7 µM (inactive); in [6], 16.3 µM (inactive). In addition, the GI50 in experiment [7] is 16.9 µM (inactive); in [8], 18.8 µM (inactive).

Consider `Cc1c(C(=O)CC(=O)C(=O)Nc2ccc(Cl)c(Cl)c2)[n+]([O-])c2ccccc2[n+]1[O-]`, for which the GI50 in experiment [1] was 15.7 µM (inactive); in experiment [2], 52.5 µM (inactive); in experiment [9], 22.5 µM (inactive); in [4], 16.9 µM (inactive); in [5], 48.9 µM (inactive); in experiment [8], 26 µM (inactive).

Take `O=NN(CCCl)C(=O)N[C@H]1CC[C@H](CC(=O)O)CC1`: the GI50 in [1] is > 100 µM (inactive); in [2] it was > 46.5 µM (inactive); in experiment [3], > 100 µM (inactive); in [4], 61.9 µM (inactive); in [5] it was > 100 µM (inactive); in experiment [6] it was > 78.7 µM (inactive). Besides, the GI50 in [7] and in experiment [8] was > 100 µM (inactive) each time.

For `CCCC(C)C[C@@H](C)CC(C)/C=C(\C)c1oc(=O)c(C)c(O)c1C.CC[C@@H](C)C[C@@H](C)C[C@@H](C)/C=C(\C)c1oc(=O)c(C)c(O)c1C` (stereo partly drawn), the GI50 was 10 µM (inactive) in experiment [1]; 12.6 µM (inactive) in [2]; 16.8 µM (inactive) in experiment [4]; 20.9 µM (inactive) in experiment [5]; 13.5 µM (inactive) in experiment [7]; 18.5 µM (inactive) in [8].

For `Cc1cc(O)c2c3c1C(=O)Oc1c(CO)c(O)c(C(=O)O)c(c1O3)C=NN=Cc1c3c(c(CO)c(O)c1C(=O)O)OC(=O)c1c(C)cc(O)c(c1O3)C=NN=C2`, the GI50 in experiment [1] was > 100 µM (inactive); in [2], > 100 µM (inactive); in experiment [3], > 100 µM (inactive); in experiment [4] it was 51.5 µM (inactive); in experiment [5] it was > 100 µM (inactive); in experiment [6], > 100 µM (inactive). In addition, the GI50 in [7] is > 100 µM (inactive).

Turning to `O=C1N[C@H](Cc2c[nH]cn2)C(=O)N2CCC[C@@H]12`, the GI50 in experiment [1], in [2], in experiment [3], in [4], in experiment [5] and in experiment [7] was > 100 µM (inactive) in each case. In addition, the GI50 in experiment [8] was > 100 µM (inactive).

Regarding `Cc1c(Cl)c2ccccc2n1S(=O)(=O)c1ccccc1`, the GI50 in [2] is 26.5 µM (inactive); in [3] it was > 100 µM (inactive); in experiment [4], 37.9 µM (inactive); in experiment [7] it was 71.6 µM (inactive); in experiment [8], 38.7 µM (inactive).

In the case of `COc1ccccc1/C=C/C(=O)c1sc(-c2cccnc2)nc1C`, the GI50 in [1] is > 100 µM (inactive); in [2], > 100 µM (inactive); in experiment [4], > 100 µM (inactive); in experiment [5], > 100 µM (inactive); in [6], 76.6 µM (inactive); in experiment [7] it was > 100 µM (inactive). Further, in [8], the GI50 is > 100 µM (inactive).

Consider `O=C1CCCC2COc3ccc(O)c1c32` (stereo not drawn), for which the GI50 in [1], in experiment [2], in experiment [9], in experiment [4], in experiment [5] and in [7] was > 100 µM (inactive) throughout. The GI50 in experiment [8] was > 100 µM (inactive).

Regarding `Cc1no[n+]([O-])c1/C=N/NS(=O)(=O)c1ccccc1`, the GI50 in [1], in [2], in experiment [4], in [6] and in experiment [7] was > 100 µM (inactive) throughout.

In the case of `O=C1CCC2(CC1)SCCCS2`, the GI50 in experiment [1], in [2], in experiment [3], in experiment [4], in experiment [7] and in experiment [8] was > 100 µM (inactive) in each case.

`Cn1ccnc1CCc1c(Cl)cccc1Cl`: the GI50 in experiment [1] was > 100 µM (inactive); in experiment [2], > 100 µM (inactive); in [4] it was > 100 µM (inactive); in [5], > 100 µM (inactive); in [6], 51.4 µM (inactive); in [7], > 100 µM (inactive). The GI50 in [8] is > 100 µM (inactive).

Take `C=C1C(O)C2(O)OCC34C(CC5C(C)=CC(=O)C(O)C5(C)C23)OC(=O)C(OC(=O)C/C=C(\C)CCCCC)C14` (stereo not drawn): the GI50 in experiment [1] is 0.0136 µM (active); in experiment [2], 0.0149 µM (active); in [3], 0.0153 µM (active); in experiment [4] it was 0.0125 µM (active); in experiment [5] it was 0.0145 µM (active); in experiment [6], 0.0343 µM (active). The GI50 in experiment [7] is 0.0146 µM (active).

For `COc1ccc([N+]2=NC(c3ccc([N+](=O)[O-])cc3)=NN(c3ccccc3)C2)cc1.[O-][Cl+3]([O-])([O-])[O-]`, the GI50 was 58.9 µM (inactive) in experiment [2]; 53.6 µM (inactive) in [3]; 40.6 µM (inactive) in [4]; > 100 µM (inactive) in experiment [5]; 34.9 µM (inactive) in experiment [7]; > 100 µM (inactive) in experiment [8].

Turning to `C[N+](C)(C)CC(=O)N/N=C(/Cc1nc2ccc([N+](=O)[O-])cc2nc1O)C(=O)Nc1cc(C(F)(F)F)ccc1Cl`, the GI50 in [1] was > 100 µM (inactive); in [2], > 100 µM (inactive); in experiment [9], > 100 µM (inactive); in [4] it was 75 µM (inactive); in [7], > 100 µM (inactive).

In the case of `CCOC(=O)CSc1nnc(CSc2nc(-c3ccccc3)c(-c3ccccc3)[nH]2)n1-c1ccccc1`, the GI50 in [1] is 38.8 µM (inactive); in experiment [2] it was 27.7 µM (inactive); in experiment [3], 24.3 µM (inactive); in [4] it was 15.3 µM (inactive); in experiment [5], 27.9 µM (inactive); in [7] it was > 100 µM (inactive). Moreover, the GI50 in experiment [8] was > 100 µM (inactive).

In the case of `CC1=C(C(=O)Nc2cc(=O)n(C)c(=O)n2C)C(c2cccc([N+](=O)[O-])c2)C(C(=O)Nc2cc(=O)n(C)c(=O)n2C)=C(C)N1`, the GI50 in experiment [1] was > 100 µM (inactive); in [2] it was > 100 µM (inactive); in [4] it was 80.5 µM (inactive); in experiment [5], > 100 µM (inactive); in [7], > 100 µM (inactive).
